According to patent publication US11492325B2, “Compounds as inhibitors of sodium channels” (Human BioMolecular Research Institute, priority 2016, dated 2022):
Like-named read-outs stand apart in the source and are kept apart here. One block for each compound: values may come before it.

How the values were obtained:
[1] = Metabolic stability in human liver microsomes; assay type: in vitro ADME
Outline: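 Liver microsomes (rat, mouse, dog or human; 0.4-0.5 mg protein) incubated with 50 μM compound in 100 mM potassium phosphate pH 7.4 with NADPH-generating system and 3 mM MgCl2. Parent loss followed by HPLC-UV; half-life and kapp from normalized peak area versus time.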

CYP3A5 = CYP3A5 (Homo sapiens, UniProt P20815); test: Metabolism with highly purified CYP3A5 (HPLC)
Sequence of CYP3A5 (P20815 whole entry): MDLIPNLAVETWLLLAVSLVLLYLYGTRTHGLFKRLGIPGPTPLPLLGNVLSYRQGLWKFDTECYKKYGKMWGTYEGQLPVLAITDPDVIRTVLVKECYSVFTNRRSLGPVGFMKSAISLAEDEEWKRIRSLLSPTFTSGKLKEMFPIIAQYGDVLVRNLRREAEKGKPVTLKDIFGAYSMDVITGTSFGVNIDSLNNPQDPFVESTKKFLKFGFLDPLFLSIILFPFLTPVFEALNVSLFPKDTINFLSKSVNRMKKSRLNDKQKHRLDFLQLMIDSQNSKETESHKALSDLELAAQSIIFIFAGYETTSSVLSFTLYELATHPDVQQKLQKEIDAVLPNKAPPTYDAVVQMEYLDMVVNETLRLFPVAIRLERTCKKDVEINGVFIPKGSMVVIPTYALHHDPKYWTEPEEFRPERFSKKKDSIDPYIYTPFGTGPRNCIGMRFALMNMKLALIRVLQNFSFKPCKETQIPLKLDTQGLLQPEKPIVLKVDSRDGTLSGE
Method: (§1) A typical incubation contained rat, mouse, dog or human liver microsomes (0.4-0.5 mg of protein), 100 mM potassium phosphate buffer (pH7.4), 50 μM test compound, an NADPH-generating system consisting of 0.5 mM NADP^+, 0.5 mM glucose-6-phosphate, 1 IU/mL glucose-6-phosphate dehydrogenase, 1 mg/mL diethylenetriaminepentaaceticacid (DETAPAC), and 3 mM MgCl2 in a final incubation volume of 0.25 mL. […] After centrifugation at 3000 rpm for 5 min, the organic fraction was collected, the solvent was removed with a stream of argon and the residue was reconstituted in 125 μL of MeOH and 125 μL H2O, mixed thoroughly, centrifuged at 13,000 rpm for 5 min and analyzed by high performance liquid chromatography. Samples were run on a Hitachi D-7000 HPLC system using a L-7100 analytical pump, L-7400 UV-Visible variable wavelength detector, and L-7600 automatic sample injector. […] Disappearance of the analyte was monitored over time. A plot of the area under the curve for the normalized analyte versus time afforded the half-life values and kapp.
(§2) Accordingly, we examined the metabolism of leads with highly purified CYPs with an HPLC method (Example 8).

Human FMO1 = target: T1, Human FMO1 (Homo sapiens, UniProt Q01740); test: Metabolism with human FMO1 (nmol metabolism/incubation); settings: 15 μg enzyme/incubation; 30 mins, 37° C.; nmol metabolism/incubation
T1 sequence (Q01740 1-532): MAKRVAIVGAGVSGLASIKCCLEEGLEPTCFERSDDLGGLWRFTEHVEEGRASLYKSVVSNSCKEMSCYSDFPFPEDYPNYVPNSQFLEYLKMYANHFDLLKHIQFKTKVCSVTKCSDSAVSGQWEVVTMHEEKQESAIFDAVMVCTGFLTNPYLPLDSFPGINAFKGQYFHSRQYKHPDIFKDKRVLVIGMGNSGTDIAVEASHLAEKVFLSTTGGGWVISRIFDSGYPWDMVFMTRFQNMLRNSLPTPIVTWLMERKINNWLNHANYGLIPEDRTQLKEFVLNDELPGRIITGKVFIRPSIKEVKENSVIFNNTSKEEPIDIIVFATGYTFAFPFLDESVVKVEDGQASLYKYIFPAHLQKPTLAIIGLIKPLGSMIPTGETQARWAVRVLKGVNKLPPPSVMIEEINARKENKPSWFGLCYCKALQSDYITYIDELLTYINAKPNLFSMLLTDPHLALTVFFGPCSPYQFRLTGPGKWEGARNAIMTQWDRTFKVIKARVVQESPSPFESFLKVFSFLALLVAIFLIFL

CYP3A4 [2] = target: T2, CYP3A4 (Homo sapiens, UniProt P08684); test: Metabolism with highly purified CYP3A4 (HPLC); settings: for Human CYP3A4 (nmol/incub): 3 pmol enzyme/incubation, 30 mins, 37° C., nmol metabolism/incubation
T2 sequence (P08684 whole entry): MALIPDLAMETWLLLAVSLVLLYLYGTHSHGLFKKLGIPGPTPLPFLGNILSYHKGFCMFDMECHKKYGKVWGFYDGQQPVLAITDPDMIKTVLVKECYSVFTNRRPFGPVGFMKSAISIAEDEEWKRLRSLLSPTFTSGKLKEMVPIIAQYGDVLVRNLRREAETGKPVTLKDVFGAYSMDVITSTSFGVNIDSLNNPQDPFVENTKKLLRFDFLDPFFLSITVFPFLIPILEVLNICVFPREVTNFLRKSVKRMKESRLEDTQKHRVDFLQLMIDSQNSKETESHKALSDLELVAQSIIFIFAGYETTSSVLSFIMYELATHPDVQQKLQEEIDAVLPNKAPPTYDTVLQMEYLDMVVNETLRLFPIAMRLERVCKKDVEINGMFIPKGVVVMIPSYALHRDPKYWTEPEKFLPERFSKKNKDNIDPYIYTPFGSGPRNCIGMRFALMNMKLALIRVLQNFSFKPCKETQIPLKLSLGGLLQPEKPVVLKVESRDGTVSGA

CYP2D6 = CYP2D6 (Homo sapiens, UniProt P10635); test: Metabolism with highly purified CYP2D6 (HPLC)
Sequence of CYP2D6 (P10635 whole entry): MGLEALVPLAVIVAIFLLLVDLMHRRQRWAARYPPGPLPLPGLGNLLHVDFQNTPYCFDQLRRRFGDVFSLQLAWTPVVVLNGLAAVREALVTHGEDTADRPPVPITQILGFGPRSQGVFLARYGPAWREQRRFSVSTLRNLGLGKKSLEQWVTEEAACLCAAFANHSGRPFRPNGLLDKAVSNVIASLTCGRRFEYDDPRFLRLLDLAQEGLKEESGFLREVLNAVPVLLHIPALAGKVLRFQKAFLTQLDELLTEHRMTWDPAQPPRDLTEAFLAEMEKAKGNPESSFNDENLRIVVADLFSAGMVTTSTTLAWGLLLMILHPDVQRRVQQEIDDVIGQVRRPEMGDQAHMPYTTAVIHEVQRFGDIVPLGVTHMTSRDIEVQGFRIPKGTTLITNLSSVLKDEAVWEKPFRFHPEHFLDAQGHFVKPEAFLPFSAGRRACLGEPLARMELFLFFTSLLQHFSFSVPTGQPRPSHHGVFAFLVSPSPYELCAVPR
Method: as §1, §2

[3] = Metabolism in mouse hepatic S9; settings: for Mouse liver S-9 (nmol/incub): 0.4 mg protein/incubation, 30 mins, 37° C., nmol metabolism/incubation
Method: as §1
(§3) Microsomes contain CYPs and FMO metabolic enzymes. S9 contains soluble enzymes (i.e., aldehyde oxidase, MAO, etc.).

FMO = test: Metabolism by FMO
[4] = Metabolism in human hepatic S9
[5] = system: isolated perfused aged rat heart exposed to hydrogen peroxide; test: Aged rat heart perfusion model of arrhythmia (H2O2, ex vivo); settings: 10 μM, 30 min after perfusion, continuous H2O2 (0.1 mM)
Method: FIG. 1. Initiation of Early After Depolarizations-Mediated Ectopic Ventricular Beats and Ventricular Fibrillation in an Isolated Perfused Aged Rat Heart Exposed to hydrogen peroxide.
Conduction velocity (CV), action potential duration (APD) and responsiveness to drugs was measured in ex-vivo rat heart preparations (FIG. 1). We chose a rat heart model to test for the effect of (R)-82 (i.e., (R)-Dd, Example 4) to decrease arrhythmias because CV and APD are preserved in buffer-perfused rat hearts up to […]. In contrast, in this model, continuous presence (perfusion) of H2O2 (0.1 mM) produces early after depolarizations (EADs) and ectopic ventricular beats 6 min after exposure that degenerates to ventricular tachycardia (VT) and ventricular fibrillation (VF) after 12 min (FIG. 1). Left untreated, the heart would die within 45 mins. […] The conclusion is that (R)-82 is more efficacious than the currently used standard of care.

Male BALBc mice = settings: mice, 100 mg/kg
Excerpt: Male BALBc mice (20-22 g) were used throughout these studies. The animals were maintained in a temperature-controlled room with 12-hr periods of light and darkness and had continuous access to water and animal food. […] Groups contained 2-4 animals.

[6] = Metabolic stability in dog liver microsomes; assay type: in vitro ADME; settings: for half-life at 50 μM: dog, liver microsomes, pH 7.4, NADPH-generating system, 37° C., read-out: Liver Microsomes t1/2 Dog
Method: as §1

[7] = Metabolic stability in mouse liver microsomes; assay type: in vitro ADME; settings: for half-life at 50 μM: mouse, liver microsomes, pH 7.4, NADPH-generating system, 37° C., read-out: Liver Microsomes t1/2 Mouse
Method: as §1

[8] = Metabolic stability in rat liver microsomes; assay type: in vitro ADME; settings: for half-life at 50 μM: rat, liver microsomes, pH 7.4, NADPH-generating system, 37° C., read-out: Liver Microsomes t1/2 Rat
Method: as §1

Human FMO3 = Human FMO3 (Homo sapiens, UniProt P31513); settings: 15 μg enzyme/incubation; 30 mins, 37° C.; nmol metabolism/incubation
Sequence of Human FMO3 (P31513 whole entry): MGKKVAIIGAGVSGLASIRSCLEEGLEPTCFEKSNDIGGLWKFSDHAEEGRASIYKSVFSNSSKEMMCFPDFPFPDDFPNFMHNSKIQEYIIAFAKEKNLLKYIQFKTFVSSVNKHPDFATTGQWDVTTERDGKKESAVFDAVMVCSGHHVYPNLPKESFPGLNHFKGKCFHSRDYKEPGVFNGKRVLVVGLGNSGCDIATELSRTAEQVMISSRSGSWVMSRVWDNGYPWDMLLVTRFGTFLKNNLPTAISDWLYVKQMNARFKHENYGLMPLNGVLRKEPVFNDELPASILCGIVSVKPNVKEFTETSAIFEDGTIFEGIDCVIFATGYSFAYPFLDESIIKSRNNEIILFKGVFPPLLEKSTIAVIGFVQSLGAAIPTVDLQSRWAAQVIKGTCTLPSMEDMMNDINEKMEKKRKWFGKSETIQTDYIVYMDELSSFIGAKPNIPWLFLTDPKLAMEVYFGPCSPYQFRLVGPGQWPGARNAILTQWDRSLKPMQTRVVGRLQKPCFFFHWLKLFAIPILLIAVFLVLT

[9] = system: cardiomyocytes derived from hiPSCs from a LQTS3 patient; settings: for LQT-Fold Shortening / LQT-Shortening Dose / LQT-EC50 (μM)-Shortening: 'No AP' wraps to 'No AP shortening'; for LQT-Cess. Dose: deuterated vs non-deuterated; for action potential shortening compared to unlabeled compound: deuterium-labeled analogs
[10] = system: normal human induced pluripotent stem cell (hiPSC) cardiomyocyte; settings: for WT-Prolong. Dose: 'No AP' wraps to 'No AP Prolong.'; for WT-Cess. Dose / WT-EC50 (μM)-Prolong.: deuterated vs non-deuterated; for WT-EC50 (μM)-Prolong.: 'No AP' wraps to 'No AP prolongation'
CYP3A4 [11] = target: T2, CYP3A4; settings: 50 min
[12] = Metabolism in rat hepatic S9; assay type: in vitro ADME; settings: 0.5 mg of protein
Method: as §1, §3

[13] = Metabolism in dog hepatic S9; assay type: in vitro ADME; settings: 0.5 mg of protein
Method: as §1, §3

metabolism in human liver microsomes judged by HPLC [1]: not metabolized very extensively | nmols metabolized, CYP3A5 (CYP3A5; 50 min incubation): 34.2 nmols | pmols product/μg CYP/min, CYP3A5 (CYP3A5; 50 min incubation): 48.8 pmols product/μg CYP/min | Human FMO1 (nmol/incub) (Human FMO1): 6.7 nmol/incub | Human CYP3A4 (nmol/incub) (CYP3A4 [2]): 3.0 nmol/incub | nmols metabolized, CYP3A4 (CYP3A4 [2]; 50 min incubation): 32.4 nmols | pmols product/μg CYP/min, CYP3A4 (CYP3A4 [2]; 50 min incubation): 46.2 pmols product/μg CYP/min | nmols metabolized, CYP2D6 (CYP2D6; 50 min incubation): 4.04 nmols | pmols product/μg CYP/min, CYP2D6 (CYP2D6; 50 min incubation): 6.0 pmols product/μg CYP/min | Mouse liver S-9 (nmol/incub) [3]: 5.2 nmol/incub | metabolism by FMO (FMO): metabolized by FMO | metabolism in human liver S-9 judged by HPLC [4]: not metabolized very extensively
Compound: Cc1cccc(C)c1OCC(C)N (racemic) [Mexiletine, reference compound]

Compound: Cl.NC(COc1ccccc1C(F)(F)F)c1ccccc1 (stereo in doubt) [(R)-82]
Liver Microsomes T1/2 ([1]; human, microsomes): 2.27 h | resolution of arrhythmias [5]: complete resolution of all forms of arrhythmias to normal sinus rhythm | Liver S-9, remaining after 1 hr ([4]; human, s9, 1 h): >95% after 1 hr | Behavior Effect (R)-enantiomer (Male BALBc mice): No detectable effect | behavioral effects at 100 mg/kg (Male BALBc mice; enantiomers): no apparent behavioral effects

Compound: Cc1cc(C)cc(OCC(N)c2ccccc2)c1 (centres unmarked) [drawing 301]
half-life at 50 μM [6]: 3.07 h | half-life at 50 μM [7]: 0.983 h | half-life at 50 μM ([1]; human, liver microsomes, pH 7.4, 50 μM, NADPH-generating system, 37° C., read-out: Liver Microsomes t1/2 Human): 1.73 h | half-life at 50 μM [8]: 0.867 h

Compound: Cl.[2H]C(N)(COc1ccccc1C)c1ccccc1 (centres unmarked) [Compound 104c]
Human FMO1 (nmol/incub) (Human FMO1): 1.4 nmol/incub | Human CYP3A4 (nmol/incub) (CYP3A4 [2]): 1.0 nmol/incub | Mouse liver S-9 (nmol/incub) [3]: 13.2 nmol/incub | Human FMO3 (nmol/incub) (Human FMO3): 1.3 nmol/incub

Compound: Cl.[2H]C(N)(COc1cc(C)cc(C)c1)c1ccccc1 (centres unmarked) [Compound 104b]
Human FMO1 (nmol/incub) (Human FMO1): 1.0 nmol/incub | Human CYP3A4 (nmol/incub) (CYP3A4 [2]): 0.3 nmol/incub | LQT-Fold Shortening [9]: 1.280 | LQT-Shortening Dose [9]: 2.5 µM | LQT-Cess. Dose [9]: 22 µM | action potential shortening compared to unlabeled compound [9]: equal to or greater action potential shortening | Human FMO3 (nmol/incub) (Human FMO3): 0.05 nmol/incub | WT-Prolong. Dose [10]: No AP | WT-Cess. Dose [10]: 22 µM | WT-EC50 (μM)-Prolong. [10]: No AP

Compound: Cl.NC(COc1ccccc1C(F)(F)F)c1ccccc1 (racemic) [Compound 82, 1-phenyl-2-(2-(trifluoromethyl)phenoxy)ethan-1-amine]
nmols metabolized, CYP3A5 (CYP3A5; human, 50 min): 29.9 nmols | nmols/μg CYP, CYP3A5 (CYP3A5; human, 50 min): 2.13 nmols/μg CYP | pmols product/μg CYP/min, CYP3A5 (CYP3A5; human, 50 min): 42.6 pmols product/μg CYP/min | nmols metabolized, CYP2D6 (CYP2D6; human, 50 min): 29.1 nmols | nmols/μg CYP, CYP2D6 (CYP2D6; human, 50 min): 2.18 nmols/μg CYP | pmols product/μg CYP/min, CYP2D6 (CYP2D6; human, 50 min): 43.6 pmols product/μg CYP/min | nmols metabolized, CYP3A4 (CYP3A4 [11]): 10.9 nmols | nmols/μg CYP, CYP3A4 (CYP3A4 [11]): 0.77 nmols/μg CYP | pmols product/μg CYP/min, CYP3A4 (CYP3A4 [11]): 15.4 pmols product/μg CYP/min

Compound: NC(COc1cc(C(F)(F)F)cc(C(F)(F)F)c1)c1ccccc1 (centres unmarked) [drawing 302]
half-life at 50 μM [6]: 1.93 h | parent after 60 min, Mouse liver microsomes (Stable) ([7]; 60 min): Stable >95% parent after 60 min | parent after 60 min, Human liver microsomes (Stable) [1]: Stable >95% parent after 60 min | parent after 60 min, Rat liver microsomes (Stable) ([8]; 60 min): Stable >95% parent after 60 min

Compound: Cl.[2H]C(N)(COc1cc(C(F)(F)F)cc(C(F)(F)F)c1)c1ccccc1 (centres unmarked) [Compound 104a]
Human FMO1 (nmol/incub) (Human FMO1): 0.8 nmol/incub | Human CYP3A4 (nmol/incub) (CYP3A4 [2]): 1.1 nmol/incub | LQT-EC50 (μM)-Shortening [9]: No AP | LQT-Fold Shortening [9]: 1.274 | LQT-Shortening Dose [9]: 22 µM | LQT-Cess. Dose [9]: 133 µM | action potential shortening compared to unlabeled compound [9]: equal to or greater action potential shortening | Human FMO3 (nmol/incub) (Human FMO3): 0.6 nmol/incub | WT-Prolong. Dose [10]: No AP | WT-Cess. Dose [10]: 66 µM | WT-EC50 (μM)-Prolong. [10]: No AP

Compound: NC(COc1ccccc1C(F)(F)F)c1ccccc1 (centres unmarked) [drawing 304]
parent after 60 min, Dog liver microsomes (Stable) ([6]; 60 min): Stable >95% parent after 60 min | half-life at 50 μM [7]: 3.27 h | parent after 60 min, Human liver microsomes (Stable) [1]: Stable >95% parent after 60 min | half-life at 50 μM [8]: 3.3 h

Compound: Cc1cc(C)cc(OCC(N)c2ccccc2)c1 (centres unmarked) [drawing 306]
% Metabolism Mouse S9 ([3]; 0.5 mg of protein): 13.6 ± 5.0% | % Metabolism Rat S9 [12]: 45.0 ± 14.5% | % Metabolism Dog S9 [13]: 35.8 ± 7.0% | % Metabolism Human S9 ([4]; 0.5 mg of protein): 39.2 ± 8.4%

Compound: Cl.[2H]C(N)(COc1ccccc1C(F)(F)F)c1ccccc1 (centres unmarked) [Compound 104d]
Human FMO1 (nmol/incub) (Human FMO1): 0.3 nmol/incub | Human CYP3A4 (nmol/incub) (CYP3A4 [2]): 0.3 nmol/incub | LQT-EC50 (μM)-Shortening [9]: shortens) | LQT-Fold Shortening [9]: 1.395 | LQT-Shortening Dose [9]: 22 µM | LQT-Cess. Dose [9]: 66 µM | Human FMO3 (nmol/incub) (Human FMO3): 0.7 nmol/incub | WT-Prolong. Dose [10]: No AP | WT-Cess. Dose [10]: 22 µM | WT-EC50 (μM)-Prolong. [10]: No AP
